The results in this text go back to patent publication US9650380B2, “Difluoromethylene compound” (SATO PHARMACEUTICAL CO., LTD., priority 2012, dated 2017).

This test deals with T1, human URAT1 (Homo sapiens, UniProt Q96S37).
T1 construct: Human URAT1 full-length cDNA was introduced to an expression vector pcDNA5/FRT/V5-His TOPO; expressed in transfected cells
T1 sequence (Q96S37 1-553): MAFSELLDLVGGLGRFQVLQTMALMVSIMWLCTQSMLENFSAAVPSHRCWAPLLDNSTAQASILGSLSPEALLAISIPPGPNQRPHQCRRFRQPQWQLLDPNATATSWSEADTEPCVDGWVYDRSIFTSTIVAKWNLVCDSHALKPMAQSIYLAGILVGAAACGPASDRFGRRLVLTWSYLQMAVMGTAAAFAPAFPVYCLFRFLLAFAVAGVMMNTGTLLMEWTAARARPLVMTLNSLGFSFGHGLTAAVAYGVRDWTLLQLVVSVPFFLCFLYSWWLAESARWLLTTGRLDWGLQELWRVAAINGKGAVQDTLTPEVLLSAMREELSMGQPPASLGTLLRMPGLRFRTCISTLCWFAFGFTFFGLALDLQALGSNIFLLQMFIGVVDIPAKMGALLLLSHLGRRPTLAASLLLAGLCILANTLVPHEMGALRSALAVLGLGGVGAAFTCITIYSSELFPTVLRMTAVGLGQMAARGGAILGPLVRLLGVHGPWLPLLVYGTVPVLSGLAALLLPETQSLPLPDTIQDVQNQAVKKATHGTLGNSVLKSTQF
Briefly: Test for uric acid transport inhibition using human URAT1 expression cells. The settings on record: human URAT1 stable expression CHO cells; 14C-labeled uric acid 38 μM final; incorporation 5 minutes at room temperature; 100% window defined with benzbromarone 100 μM; read-out: URAT1 inhibitory activity (IC50). It is filed as cell-based. The protocol: In this Example, it was evaluated whether the Example compound and the Reference example compound mentioned below has the URAT1 inhibitory activity.
Human URAT1 full-length cDNA was introduced to an expression vector pcDNA5/FRT/V5-His TOPO (registered trademark) (Invitrogen Corporation). The obtained expression plasmid was introduced to Chinese hamster ovary cell (hereinafter referred to as the CHO cell) by the liposome method using Lipofectamine LTX (Invitrogen) and cultured in a selection medium including hygromycin, whereby to prepare human URAT1 stable expression cell.
The human URAT1 expression CHO cell were cultured using D-MEM/F-12 (1:1) mixed medium including 10% bovine fatal serum and hygromycin at 37° C. in the presence of 5% CO2. The cells were seeded onto a 96-well plate (Corning Incorporated) at 0.8×10^5 cells/well, and after 24 hours, the test for uric acid transport inhibition below was performed.
The medium was removed by aspiration, and then the cells were washed once with an assay buffer including 125 mM of sodium gluconate, 4.8 mM of potassium gluconate, 1.2 mM of potassium dihydrogen phosphate, 1.2 mM of magnesium sulfate, 1.3 mM of calcium gluconate and 5.6 mM of glucose, 50 μL assay buffer including the test compound in various concentrations was added, and further 50 μL assay buffer including a radioactive ligand (uric acid labeled with ^14C; 38 μM final concentration) was added, and incorporation reaction was performed at room temperature for 5 minutes. Immediately after the completion of the reaction, the reaction mixture was washed twice with 100 μL ice-cold assay buffer, and 100 μL of 0.1N sodium hydroxide was added. The reaction mixture was stirred to lyse the cells, and 4 mL of Hionic-Fluor (Packard BioScience CO.) was added, and then the radioactivity was measured with a liquid scintillation counter (Beckman Coulter, Inc. and Packard BioScience CO).
The radioactivitiy when each concentration of the test compound was added (uric acid incorporation activity, %) was calculated in which the difference of the radioactivity when the test compound was not added (DMSO added) and the radioactivity when a positive control compound, benzbromarone (a known URAT1 inhibitor) was added in 100 μM, was taken as 100%, and the concentration of the test compound when the uric acid incorporation activity was inhibited to 50% (IC50) was obtained.
The IC50 is the midpoint of a concentration-inhibition curve. As to `Cc1nn(Cc2c(Cl)cccc2C(N)=O)c2cc(C(F)(F)c3nnn[nH]3)ccc12` [example 67, 3-chloro-2-{6-[difluoro(1H-tetrazol-5-yl)methyl]-3-methyl-1H-indazol-1-ylmethyl}benzamide], the IC50 came to 46 nM.

As to `Cc1nn(Cc2c(C#N)cccc2CO)c2cc(C(F)(F)c3nnn[nH]3)ccc12` [example 104], the IC50 turned out to be 30 nM.

For the compound `Cc1cccc(C(N)=O)c1Cn1nc(C)c2ccc(C(F)(F)c3nnn[nH]3)nc21` [example 110, 2-{6-[difluoro(1H-tetrazol-5-yl)methyl]-3-methyl-1H-pyrazolo[3,4-b]pyridin-1-ylmethyl}-3-methylbenzamide], the IC50 amounted to 44 nM.

In the case of `Cc1nn(Cc2c(C(N)=O)cccc2C2CC2)c2nc(C(F)(F)c3nnn[nH]3)ccc12` [example 116, 3-cyclopropyl-2-{6-[difluoro(1H-tetrazol-5-yl)methyl]-3-methyl-1H-pyrazolo[3,4-b]pyridin-1-ylmethyl}benzamide], the IC50 stood at 36 nM.

In the case of `Cc1cccc(C#N)c1Cn1nc(CO)c2ccc(C(F)(F)C(=O)O)cc21` [example 121, [1-(2-cyano-6-methylbenzyl)-3-hydroxymethyl-1H-indazol-6-yl]difluoroacetic acid], the IC50 was 268 nM.
